{"source": "patent US6235494A", "about": "“Substrates for assessing mannan-binding protein-associated serine protease activity and methods using the substrates” (The Scripps Research Institute, priority 1999, dated 2001)", "origin": "cited, not measured here", "key": {"alternative pathway [1]": {"system": "alternative pathway"}, "classical pathway [2]": {"system": "classical pathway"}, "classical pathway [3]": {"system": "classical pathway", "remark": "listed apart in the source"}, "[4]": {"system": "kallikrein (plasma and pancreatic)"}, "[5]": {"system": "complement activation (C3a and C4a)", "details": "normal individuals"}, "alternative pathway [6]": {"system": "alternative pathway", "remark": "listed apart in the source"}}}
{"smiles": "N=C(N)c1ccccc1", "note": "[benzamidine]", "values": [{"measurement": "inhibition of MASP activity", "setting": "MASP", "result": "does not inhibit MASP activity"}, {"measurement": "block of the alternative pathway", "setting": "alternative pathway [1]", "result": "blocks"}, {"measurement": "C4a generated in whole blood", "setting": "C4a; benzamidine added, before EDTA", "result": "no C4a generated"}, {"measurement": "block of the classical pathway", "setting": "classical pathway [2]", "result": "blocks"}, {"measurement": "block of the coagulation pathway", "setting": "coagulation pathway", "result": "blocks"}]}
{"smiles": "O=C(O)CN(CCN(CC(=O)O)CC(=O)O)CC(=O)O", "note": "[EDTA, ethylened laminetetraacetic acid]", "values": [{"measurement": "C4a generated upon addition of EDTA", "setting": "C4a; benzamidine-containing whole blood, EDTA added", "result": "high levels of C4a are generated"}]}
{"smiles": "CS(=O)(=O)O.CS(=O)(=O)O.N=C(N)Nc1ccc(C(=O)Oc2ccc3cc(C(=N)N)ccc3c2)cc1", "note": "[Futhan, 6-amidino-2-naphthyl p-guanidinobenzoate dimethanesulfonate]", "values": [{"measurement": "inhibition of complement-mediated hemolysis by the classical pathway", "setting": "classical pathway [3]", "result": "inhibits"}, {"measurement": "inhibition of MASP activity", "setting": "MASP", "result": "inhibits MASP"}, {"measurement": "MASP activity", "setting": "MASP; in EDTA", "result": "no MASP activity is observed"}, {"measurement": "inhibition of kallikrein (plasma and pancreatic)", "setting": "[4]", "result": "inhibits"}, {"measurement": "complement proteinase target C1r", "setting": "C1r", "result": "complement proteinase targets"}, {"measurement": "complement proteinase target Factor B", "setting": "Factor B", "result": "complement proteinase targets"}, {"measurement": "complement proteinase target C1s", "setting": "C1s", "result": "complement proteinase targets"}, {"measurement": "inhibition of plasmin", "setting": "plasmin", "result": "inhibits"}, {"measurement": "stabilization of freshly drawn blood samples", "setting": "[5]", "result": "effectively stabilizes freshly drawn blood samples"}, {"measurement": "effective toward Hageman factor", "setting": "Hageman factor", "result": "sub-micromolar level"}, {"measurement": "inhibition of thrombin", "setting": "thrombin", "result": "inhibits"}, {"measurement": "inhibition of complement-mediated hemolysis by the alternative pathway", "setting": "alternative pathway [6]", "result": "inhibits"}, {"measurement": "complement proteinase target Factor D", "setting": "Factor D", "result": "complement proteinase targets"}, {"measurement": "effective toward Factor Xa", "setting": "Factor Xa", "result": "sub-micromolar level"}]}
